Columns and labels:
[1] = system: anti-insulin B cells; assay: BTK inhibitor treatment of 125Tg/NOD mice (Ibrutinib chow); B cell subsets assessed by flow cytometry in freshly isolated organs; assay type: in vivo, mouse
Protocol: After 5-10 weeks, spleen, draining pancreatic lymph nodes, and pancreas were harvested and flow cytometry was used to analyze B cell subsets. […] Mice were 12-13 weeks old at time of analysis.
B cell subsets were assessed by flow cytometry in freshly isolated organs as outlined below.
BM was eluted from long bones, and spleens and pancreatic draining lymph nodes (PLN) were macerated with HBSS (Invitrogen) plus 10% FBS (HyClone). Red blood cells were lysed using Tris-NH4Cl. Freshly isolated pancreata were digested with 3 mL of 1 mg/mL collagenase P diluted in HBSS for 30 min at 37° C., then tissue was disrupted using an 18-gauge needle. Ice cold HBSS plus 10% FBS was immediately added to inhibit collagenase activity. Cells were directly analyzed by flow cytometry. Flow cytometry Ab reagents were reactive with B220 (6B2), IgM^a (DS-1), CD19 (1D3), CD21 (7G6), CD23 (B3B4), CD93 (AA4.1), or IgM chain-specific) (Life Technologies). Biotin N-hydroxysuccinimide ester (Sigma) was used to biotinylate human insulin (Sigma) at pH 8.0 in bicine buffer. Streptavidin reagents (BD Biosciences) were used to detect biotinylated reagents. 7AAD (BD Biosciences) was used to identify dead cells. Sample acquisition was performed using an LSR II flow cytometer (BD Biosciences) and FlowJo software (Treestar) was used for analysis.
BTK is a complex protein with adapter as well as kinase functions that have independent effects on various aspects of B cell development and function. […] Flow cytometry analysis of freshly isolated splenocytes was used to identify B cell subsets as in FIG. 3.

[2] = Example 3: prediabetic individual administered ibrutinib and cyclosporine A; assay type: in vivo; settings: individual with impaired fasting glycemia and impaired glucose tolerance; ibrutinib administered with cyclosporine A
Protocol: An individual presents with impaired fasting glycemia and impaired glucose tolerance. The individual is determined to be prediabetic.

[3] = spleen, Ibrutinib vs. placebo chow, 125Tg/NOD mice

C=CC(=O)N1CCC[C@@H](n2nc(-c3ccc(Oc4ccccc4)cc3)c3c(N)ncnc32)C1 [Ibrutinib, (R)-1-(3-(4-amino-3-(4-phenoxyphenyl)-1H-pyrazolo[3,4-d]pyrimidin-1-yl)piperidin-1-yl)prop-2-en-1-one]
trafficking of anti-insulin B lymphocytes to pancreatic draining lymph nodes or pancreas ([1]; 125Tg/NOD mice treated with Ibrutinib): does not block their trafficking to pancreatic draining lymph nodes or pancreas | non-B lymphocyte numbers in spleen ([1]; 125Tg/NOD mice, Ibrutinib chow 5-10 weeks, 38 mg/kg per day, placebo 28.6±8.3, no difference): 25.1±8.5 ×10^6 | number of B lymphocytes (B220+ IgM+ live lymphocytes) in spleen ([1]; 125Tg/NOD mice, Ibrutinib chow 5-10 weeks, average 38 mg/kg per day, placebo 22.2±5.8, p<0.001): 10.1±2.8 ×10^6 | T2 B cell subset numbers in the spleen ([1]; 125Tg/NOD mice, Ibrutinib chow 5-10 weeks, placebo 17±3, p=0.51, no difference): 49±76 ×10^4 | pre-marginal zone B cell numbers in the spleen ([1]; 125Tg/NOD mice, Ibrutinib chow 5-10 weeks, placebo 43±6, p=0.0015): 17±5 ×10^4 | follicular B cell numbers in the spleen ([1]; 125Tg/NOD mice, Ibrutinib chow 5-10 weeks, placebo 345±38, p<0.001): 41±37 ×10^4 | marginal zone B cell numbers in the spleen ([1]; 125Tg/NOD mice, Ibrutinib chow 5-10 weeks, placebo 1283±217, p=0.002): 443±164 ×10^4 | number of B cells in the pancreas ([1]; 125Tg/NOD mice, Ibrutinib chow, placebo 5.2±7.7, p=0.36, no significant difference): 0.66±0.80 ×10^4 | number of B cells in the pancreatic draining lymph nodes ([1]; 125Tg/NOD mice, Ibrutinib chow, placebo 21±8, p=0.49, no significant difference): 26±9 ×10^4 | reduction in follicular B cell numbers [1, 3]: 88% | reduction in marginal zone B cell numbers [1, 3]: 65% | reduction in pre-marginal zone B cell numbers [1, 3]: 60% | development of Type 1 Diabetes [2]: does not develop Type 1 Diabetes
